Legend:
M4 muscarinic receptor = target: T1, M4 muscarinic receptor (Homo sapiens, UniProt P08173); test: Functional mobilization of intracellular calcium (FLIPR, Fluo-3), M4-CHO cells; type: cell-based; conditions: compound nos. 1-454; for Emax: read-out: M4 Efficacy
T1 construct: expressed in transfected cells; host or cells: CHO cells (M4-CHO, under puromycin, zeocin and blasticidin selection)
T1 sequence (P08173 1-479): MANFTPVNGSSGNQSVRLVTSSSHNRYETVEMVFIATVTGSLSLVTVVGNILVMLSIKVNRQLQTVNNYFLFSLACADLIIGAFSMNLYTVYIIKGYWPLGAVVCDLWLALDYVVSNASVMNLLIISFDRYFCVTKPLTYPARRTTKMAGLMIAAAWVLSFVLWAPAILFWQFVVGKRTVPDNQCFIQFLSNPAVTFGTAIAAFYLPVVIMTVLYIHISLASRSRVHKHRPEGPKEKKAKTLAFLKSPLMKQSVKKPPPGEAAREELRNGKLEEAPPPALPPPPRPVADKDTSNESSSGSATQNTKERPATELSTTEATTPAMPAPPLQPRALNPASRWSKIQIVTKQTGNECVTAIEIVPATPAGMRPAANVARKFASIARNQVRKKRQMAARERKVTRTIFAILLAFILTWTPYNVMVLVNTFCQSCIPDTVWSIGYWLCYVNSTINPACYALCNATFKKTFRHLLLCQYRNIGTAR
Summary of the method: (§1)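 Fluo-3 read-out, ex 488/em 540 nm, 60 sec on FLIPR 3. For agonist mode, compound added directly; for inhibition, 15 min compound pre-incubation before carbachol at EC80 (added as a 3× solution), or co-application. Buffer pH 7.4 with 1 mM probenecid; DMSO 0.5%.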

M1 muscarinic receptor = target: T2, M1 muscarinic receptor (Homo sapiens, UniProt P11229); test: Functional mobilization of intracellular calcium (FLIPR, Fluo-3), M1-CHO cells; type: cell-based; conditions: compound nos. 1-454; for Emax: read-out: M1 Efficacy
T2 construct: expressed in transfected cells; host or cells: CHO cells (M1-CHO, under zeocin and G418 selection)
T2 sequence (P11229 1-460): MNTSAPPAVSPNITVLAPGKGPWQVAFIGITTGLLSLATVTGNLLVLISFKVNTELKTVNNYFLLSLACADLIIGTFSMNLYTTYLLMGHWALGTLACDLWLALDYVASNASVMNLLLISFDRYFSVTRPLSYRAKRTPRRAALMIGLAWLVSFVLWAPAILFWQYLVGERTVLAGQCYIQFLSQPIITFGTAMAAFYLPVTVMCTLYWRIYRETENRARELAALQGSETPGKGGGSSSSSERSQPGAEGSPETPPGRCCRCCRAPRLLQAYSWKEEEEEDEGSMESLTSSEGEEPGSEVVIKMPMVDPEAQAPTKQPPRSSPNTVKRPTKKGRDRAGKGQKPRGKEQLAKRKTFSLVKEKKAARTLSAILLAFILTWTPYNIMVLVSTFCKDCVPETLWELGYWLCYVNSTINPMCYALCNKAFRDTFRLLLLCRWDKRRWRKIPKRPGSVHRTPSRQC
Summary of the method: as §1

[1] = 100% efficacy is the maximum response obtained with the Carbachol control

CC(=O)NC1CC2(CCN(C[C@@H]3C[C@H]4C=C[C@H]3C4)CC2)c2ccccc21 (stereo partly drawn) [compound 421]
M4 Activity (M4 muscarinic receptor): + (activity was measured to be greater than or equal to 4.0 μM) | M4 Efficacy (M4 muscarinic receptor; [1]): + (efficacy was calculated to be 55% or less) | M1 Activity (M1 muscarinic receptor): + (activity was measured to be greater than or equal to 3.0 μM) | M1 Efficacy (M1 muscarinic receptor; [1]): + (efficacy was calculated to be 65% or less)

COCCOC(=O)N1CC2(CCN(C3CC4CCC(C3)N4C(=O)OC(C)C)CC2)c2cc(F)ccc21 (stereo not drawn) [compound 422]
M4 Activity (M4 muscarinic receptor): + (activity was measured to be greater than or equal to 4.0 μM) | Emax (M4 muscarinic receptor; [1]): < 55% | M1 Activity (M1 muscarinic receptor): +++ (activity was measured to be less than or equal to 0.7 μM) | Emax (M1 muscarinic receptor; [1]): < 65%

COC(=O)N1CCC(CN2CCC3(CC2)CN(C(C)=O)c2ccc(C)cc23)CC1 [compound 423]
M4 Activity (M4 muscarinic receptor): + (activity was measured to be greater than or equal to 4.0 μM) | Emax (M4 muscarinic receptor; [1]): < 55% | M1 Activity (M1 muscarinic receptor): ++ (activity was measured to be between 0.7 μM and 3.0 μM) | Emax (M1 muscarinic receptor; [1]): < 65%

CC(=O)N1CC2(CCN(C3CCN(C(=O)O[C@@H]4CCOC4)CC3)CC2)c2cc(F)ccc21 [compound 424]
M4 Activity (M4 muscarinic receptor): + (activity was measured to be greater than or equal to 4.0 μM) | Emax (M4 muscarinic receptor; [1]): < 55% | M1 Activity (M1 muscarinic receptor): + (activity was measured to be greater than or equal to 3.0 μM) | Emax (M1 muscarinic receptor; [1]): < 65%

CC(=O)N1CC2(CCN(C3CCCC(C(F)(F)F)C3)CC2)c2cc(F)ccc21 (stereo not drawn) [compound 425]
M4 Activity (M4 muscarinic receptor): + (activity was measured to be greater than or equal to 4.0 μM) | Emax (M4 muscarinic receptor; [1]): < 55% | M1 Activity (M1 muscarinic receptor): + (activity was measured to be greater than or equal to 3.0 μM) | Emax (M1 muscarinic receptor; [1]): < 65%

CCOC(=O)N1CCC(N2CCC3(CC2)CN(C(C)=O)c2ccc(C4=CCCC4)cc23)CC1 [compound 426]
M4 Activity (M4 muscarinic receptor): + (activity was measured to be greater than or equal to 4.0 μM) | Emax (M4 muscarinic receptor; [1]): < 55% | M1 Activity (M1 muscarinic receptor): + (activity was measured to be greater than or equal to 3.0 μM) | Emax (M1 muscarinic receptor; [1]): < 65%

CCOC(=O)N1CCC(N2CCC3(CC2)CN(C(=O)OCC)c2ccc(F)cc23)CC1 [compound 427]
M4 Activity (M4 muscarinic receptor): + (activity was measured to be greater than or equal to 4.0 μM) | Emax (M4 muscarinic receptor; [1]): < 55% | M1 Activity (M1 muscarinic receptor): ++ (activity was measured to be between 0.7 μM and 3.0 μM) | Emax (M1 muscarinic receptor; [1]): < 65%

CCOC(=O)N1CCC(N2CCC3(CC2)CN(C(=O)O[C@H]2CCOC2)c2ccc(F)cc23)CC1 [compound 428]
M4 Activity (M4 muscarinic receptor): + (activity was measured to be greater than or equal to 4.0 μM) | Emax (M4 muscarinic receptor; [1]): < 55% | M1 Activity (M1 muscarinic receptor): ++ (activity was measured to be between 0.7 μM and 3.0 μM) | Emax (M1 muscarinic receptor; [1]): < 65%

Fc1ccc2c(c1)C1(CCN(C[C@@H]3C[C@H]4CC[C@H]3O4)CC1)CN2 [compound 429]
M4 Activity (M4 muscarinic receptor): + (activity was measured to be greater than or equal to 4.0 μM) | Emax (M4 muscarinic receptor; [1]): < 55% | M1 Activity (M1 muscarinic receptor): ++ (activity was measured to be between 0.7 μM and 3.0 μM) | Emax (M1 muscarinic receptor; [1]): < 65%

CCOC(=O)N1CCC(N2CCC3(CC2)C[C@H](NC(C)=O)c2ccccc23)CC1 [compound 430]
M4 Activity (M4 muscarinic receptor): + (activity was measured to be greater than or equal to 4.0 μM) | Emax (M4 muscarinic receptor; [1]): < 55% | M1 Activity (M1 muscarinic receptor): ++ (activity was measured to be between 0.7 μM and 3.0 μM) | Emax (M1 muscarinic receptor; [1]): < 65%

CC(=O)N1CC2(CCN(C3CCN(c4nccs4)CC3)CC2)c2cc(F)ccc21 [compound 432]
M4 Activity (M4 muscarinic receptor): +++ (activity was measured to be less than or equal to 0.1 μM) | Emax (M4 muscarinic receptor; [1]): 55 to 70% | M1 Activity (M1 muscarinic receptor): +++ (activity was measured to be less than or equal to 0.7 μM) | Emax (M1 muscarinic receptor; [1]): 65 to 85%

CC(=O)N1CC2(CCN(C3CCC4(CC3)CC(C)=NO4)CC2)c2cc(F)ccc21 (stereo not drawn) [compound 433]
M4 Activity (M4 muscarinic receptor): ++ (activity was measured to be between 0.1 μM and 4.0 μM) | Emax (M4 muscarinic receptor; [1]): < 55% | M1 Activity (M1 muscarinic receptor): ++ (activity was measured to be between 0.7 μM and 3.0 μM) | Emax (M1 muscarinic receptor; [1]): 65 to 85%

Source: patent US7858635B2 (priority 2005, dated 2010)
